Results published in ChEMBL document CHEMBL5055643, “Sophoraflavanone G Resensitizes ABCG2-Overexpressing Multidrug-Resistant Non-Small-Cell Lung Cancer Cells to Chemotherapeutic Drugs” (J Nat Prod, 2021).
pIC50: −log10 of the molar value.

Assays:
[1] = biological target: T1, Broad substrate specificity ATP-binding cassette transporter ABCG2 (Homo sapiens, UniProt Q9UNQ0); assay: Inhibition of ABCG2 in mitoxantrone-selected ABCG2-overexpressing human NCI-H460/MX20 cells assessed as increase in intracellular mitoxantrone accumulation incubated for 1 hr in presence of mitoxantrone by flow cytometry; assay type: cell-based
T1 sequence (Q9UNQ0 whole entry): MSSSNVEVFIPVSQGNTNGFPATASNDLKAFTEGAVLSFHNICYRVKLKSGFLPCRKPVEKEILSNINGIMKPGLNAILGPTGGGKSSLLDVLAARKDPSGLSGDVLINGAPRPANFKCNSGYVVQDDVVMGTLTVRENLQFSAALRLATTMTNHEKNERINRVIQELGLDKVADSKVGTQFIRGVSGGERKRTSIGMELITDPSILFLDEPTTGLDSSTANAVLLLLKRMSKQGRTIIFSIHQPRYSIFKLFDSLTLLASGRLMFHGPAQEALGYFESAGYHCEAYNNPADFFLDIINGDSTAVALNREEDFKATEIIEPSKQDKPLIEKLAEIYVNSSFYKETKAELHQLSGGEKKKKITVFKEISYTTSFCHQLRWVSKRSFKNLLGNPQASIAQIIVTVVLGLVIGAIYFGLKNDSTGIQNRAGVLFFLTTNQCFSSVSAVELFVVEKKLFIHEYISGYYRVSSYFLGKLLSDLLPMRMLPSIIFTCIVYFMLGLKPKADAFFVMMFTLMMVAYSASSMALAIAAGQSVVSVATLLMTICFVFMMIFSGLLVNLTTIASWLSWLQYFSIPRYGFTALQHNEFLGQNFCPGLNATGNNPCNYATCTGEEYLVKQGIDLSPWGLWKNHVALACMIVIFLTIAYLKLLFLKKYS

[2] = system: HEK293; assay: Chemo-sensitizing activity against ABCG2-overexpressing human HEK293/482R cells assessed as reversal fold at 1 uM measured after 72 hrs in presence of mitoxatrone by CCK8 assay relative to control; assay type: functional
[3] = system: HEK293; assay: Chemo-sensitizing activity against ABCG2-overexpressing human HEK293/482R cells assessed as reversal fold at 2 uM measured after 72 hrs in presence of SN-38 by CCK8 assay relative to control; assay type: functional
[4] = system: HEK293; assay: Chemo-sensitizing activity against ABCG2-overexpressing human HEK293/482R cells assessed as reversal fold at 5 uM measured after 72 hrs in presence of mitoxatrone by CCK8 assay relative to control; assay type: functional
[5] = system: HEK293; assay: Chemo-sensitizing activity against human HEK293 cells assessed as reversal fold at 2 uM measured after 72 hrs in presence of mitoxatrone by CCK8 assay relative to control; assay type: functional
[6] = system: HEK293; assay: Chemo-sensitizing activity against ABCG2-overexpressing human HEK293/482R cells assessed as reversal fold at 1 uM measured after 72 hrs in presence of SN-38 by CCK8 assay relative to control; assay type: functional
[7] = system: A549; assay: Cytotoxicity against becatecarin-selected ABCG2-overexpressing human A549/Bec150 cells assessed as reduction in cell viability measured after 72 hrs by CCK8 assay; assay type: ADME, cell-based; settings: A549, 72 h
[8] = system: HEK293; assay: Chemo-sensitizing activity against ABCG2-overexpressing human HEK293 cells assessed as reversal fold at 2 uM measured after 72 hrs in presence of topotecan by CCK8 assay relative to control; assay type: functional
[9] = system: NCI-H460; assay: Chemo-sensitizing activity against mitoxantrone-selected ABCG2-overexpressing human NCI-H460/MX20 cells assessed as reversal fold at 5 uM measured after 72 hrs in presence of topotecan by CCK8 assay relative to control; assay type: functional
[10] = system: A549; assay: Chemo-sensitizing activity against becatecarin-selected ABCG2-overexpressing human A549/Bec150 cells assessed as reversal fold at 5 uM measured after 72 hrs in presence of topotecan by CCK8 assay relative to control; assay type: functional
[11] = system: HEK293; assay: Chemo-sensitizing activity against ABCB1-overexpressing human HEK293/MDR19 cells assessed as reversal fold at 1 uM measured after 72 hrs in presence of colchicine by CCK8 assay relative to control; assay type: functional
[12] = Cytotoxicity against mitoxantrone-selected ABCG2-overexpressing human NCI-H460/MX20 cells assessed as cell viability at 1 to 5 uM measured after 72 hrs by CCK8 assay; assay type: ADME, cell-based; settings: dose 1-5 µM, read-out: Activity
[13] = system: NCI-H460; assay: Chemo-sensitizing activity against mitoxantrone-selected ABCG2-overexpressing human NCI-H460/MX20 cells assessed as reversal fold at 2 uM measured after 72 hrs in presence of mitoxantrone by CCK8 assay relative to control; assay type: functional
[14] = system: OVCAR-8; assay: Chemo-sensitizing activity against human OVCAR-8 cells assessed as reversal fold at 1 uM measured after 72 hrs in presence of paclitaxel by CCK8 assay relative to control; assay type: functional
[15] = system: NCI-H460; assay: Chemo-sensitizing activity against human NCI-H460 cells assessed as reversal fold at 5 uM measured after 72 hrs in presence of mitoxantrone by CCK8 assay relative to control; assay type: functional
[16] = biological target: T2, ABCG2 (Homo sapiens, UniProt Q9UNQ0); assay: Inhibition of ABCG2 in mitoxantrone-selected ABCG2-overexpressing human NCI-H460/MX20 cells assessed as increase in intracellular mitoxantrone accumulation at 20 uM incubated for 1 hr in presence of mitoxantrone by flow cytometry; assay type: cell-based; settings: probe mitoxantrone
T2 sequence (Q9UNQ0 whole entry): T1 sequence (Q9UNQ0 whole entry)

[17] = system: NCI-H460; assay: Chemo-sensitizing activity against mitoxantrone-selected ABCG2-overexpressing human NCI-H460/MX20 cells assessed as reversal fold at 2 uM measured after 72 hrs in presence of SN-38 by CCK8 assay relative to control; assay type: functional
[18] = system: NCI-H460; assay: Chemo-sensitizing activity against human NCI-H460 cells assessed as reversal fold at 2 uM measured after 72 hrs in presence of mitoxantrone by CCK8 assay relative to control; assay type: functional
[19] = system: A549; assay: Chemo-sensitizing activity against human A549 cells assessed as reversal fold at 5 uM measured after 72 hrs in presence of mitoxantrone by CCK8 assay relative to control; assay type: functional
[20] = Cytotoxicity against human HEK293 cells assessed as cell viability at 1 to 5 uM measured after 72 hrs by CCK8 assay; assay type: cell-based; settings: dose 1-5 µM, read-out: Activity
[21] = system: HEK293; assay: Cytotoxicity against human HEK293 cells assessed as reduction in cell viability measured after 72 hrs by CCK8 assay; assay type: cell-based; settings: HEK293, 72 h
[22] = system: A549; assay: Chemo-sensitizing activity against human A549 cells assessed as reversal fold at 1 uM measured after 72 hrs in presence of SN-38 by CCK8 assay relative to control; assay type: functional
[23] = system: NCI-H460; assay: Chemo-sensitizing activity against human NCI-H460 cells assessed as reversal fold at 5 uM measured after 72 hrs in presence of SN-38 by CCK8 assay relative to control; assay type: functional
[24] = system: HEK293; assay: Chemo-sensitizing activity against human HEK293 cells assessed as reversal fold at 5 uM measured after 72 hrs in presence of vincristine by CCK8 assay relative to control; assay type: functional
[25] = system: HEK293; assay: Chemo-sensitizing activity against human HEK293 cells assessed as reversal fold at 2 uM measured after 72 hrs in presence of paclitaxel by CCK8 assay relative to control; assay type: functional
[26] = system: KB-V1; assay: Chemo-sensitizing activity against ABCB1-oveexpressing human KB-V1 cells assessed as reversal fold at 2 uM measured after 72 hrs in presence of colchicine by CCK8 assay relative to control; assay type: functional

C=C(C)[C@H](CC=C(C)C)Cc1c(O)cc(O)c2c1O[C@H](c1ccc(O)cc1O)CC2=O [SOPHORAFLAVANONE G]
pIC50 [1]: 5.67 | inhibition (INH) ([1]; human, nci-h460, 1 h, time 1 hrs): Dose-dependent effect | fold change (FC) [2]: 2.6 | fold change (FC) [3]: 2.4 | fold change (FC) [4]: 5.6 | fold change (FC) [5]: 0.9 | fold change (FC) [6]: 2.1 | pIC50 [7]: 4.67 | fold change (FC) [8]: 2.3 | fold change (FC) [9]: 7.8 | fold change (FC) [10]: 2.9 | fold change (FC) [11]: 0.8 | viability at 72 h, 5 µM [12]: > 90% | fold change (FC) [13]: 2.7 | fold change (FC) [14]: 0.8 | fold change (FC) [15]: 2.2 | inhibition at 1 h, 20 µM [16]: 100% | fold change (FC) [17]: 3.7 | fold change (FC) [18]: 2.4 | fold change (FC) [19]: 1.8 | viability at 72 h, 5 µM [20]: > 90% | pIC50 [21]: 4.45 | fold change (FC) [22]: 1 | fold change (FC) [23]: 2.8 | fold change (FC) [24]: 0.9 | fold change (FC) [25]: 1 | fold change (FC) [26]: 0.9
